For test [1] the following is noted: rat; FAD286 after 4 weeks, spironolactone at 4 and 8 weeks of treatment; cited from earlier work.
In the next test the target is CYP11B2 (Homo sapiens, UniProt P19099). The following applies: patients with primary aldosteronism, oral; cited from earlier work.
For another test, the target named is T1, human CYP11B2 (Homo sapiens, UniProt P19099).
T1 construct: expressed in transfected cells
T1 sequence (P19099 25-503): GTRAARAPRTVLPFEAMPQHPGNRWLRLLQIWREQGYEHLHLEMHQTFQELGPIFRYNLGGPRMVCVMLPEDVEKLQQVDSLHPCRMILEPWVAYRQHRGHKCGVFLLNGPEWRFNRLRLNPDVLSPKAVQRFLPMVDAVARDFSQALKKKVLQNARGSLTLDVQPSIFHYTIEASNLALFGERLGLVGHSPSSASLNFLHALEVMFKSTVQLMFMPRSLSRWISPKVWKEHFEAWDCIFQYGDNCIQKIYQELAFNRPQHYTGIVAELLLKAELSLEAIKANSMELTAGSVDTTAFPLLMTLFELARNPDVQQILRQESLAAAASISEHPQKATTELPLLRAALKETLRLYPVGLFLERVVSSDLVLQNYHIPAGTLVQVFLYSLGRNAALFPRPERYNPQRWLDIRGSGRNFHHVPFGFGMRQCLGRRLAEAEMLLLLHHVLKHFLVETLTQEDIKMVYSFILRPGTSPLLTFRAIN
Description: G-402 cellular enzyme assay, human CYP11B2 (aldosterone release, HTRF). It is filed as cell-based. As to conditions: G-402 cells, 1 μM Deoxycorticosterone. A digest of the protocol:
(§1)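 Cellular format in stably transfected G-402 cells over 16 h. HTRF quantified aldosterone (CYP11B2, 1 μM deoxycorticosterone substrate) or cortisol (CYP11B1, 1 μM deoxycortisol substrate); EC50 obtained by fitting a 4-parameter sigmoid to dose–response data.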
Background: TR-FRET usually uses a lanthanide donor and a delayed reading to cut background.

The next test has as its target T2, human CYP11B1 (Homo sapiens, UniProt P15538).
T2 construct: expressed in transfected cells
T2 sequence (P15538 25-503): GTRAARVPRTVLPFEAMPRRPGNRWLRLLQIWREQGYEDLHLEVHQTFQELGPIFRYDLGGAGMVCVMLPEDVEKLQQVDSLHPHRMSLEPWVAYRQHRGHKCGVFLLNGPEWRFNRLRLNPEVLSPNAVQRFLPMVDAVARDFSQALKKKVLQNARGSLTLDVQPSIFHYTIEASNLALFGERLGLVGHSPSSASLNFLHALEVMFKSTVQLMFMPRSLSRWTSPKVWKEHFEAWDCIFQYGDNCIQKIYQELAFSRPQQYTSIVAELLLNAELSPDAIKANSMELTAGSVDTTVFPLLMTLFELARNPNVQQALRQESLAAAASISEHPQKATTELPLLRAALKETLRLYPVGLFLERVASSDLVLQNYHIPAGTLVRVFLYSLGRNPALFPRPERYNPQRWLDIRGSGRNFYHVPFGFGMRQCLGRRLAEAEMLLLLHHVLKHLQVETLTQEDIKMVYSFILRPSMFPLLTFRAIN
The experiment in a line: G-402 cellular enzyme assay, human CYP11B1 (cortisol release, HTRF). It is filed as cell-based. The following applies: G-402 cells, 1 μM Deoxycortisol. A digest of the protocol: as §1

This is an account of results in patent publication US9133158B2, “Bicyclic dihydroisoquinoline-1-one derivatives” (Hoffmann-La Roche Inc., priority 2011, dated 2015).

Usually pEC50 stands for the negative decadic logarithm of the EC50, by convention in mol/L. High values mean a low EC50, low ones a high EC50.

pEC50: −log10 of the molar value.

For the compound `CC(=O)S[C@@H]1CC2=CC(=O)CC[C@]2(C)[C@H]2CC[C@@]3(C)[C@@H](CC[C@@]34CCC(=O)O4)[C@H]12` [spironolactone], the plasma aldosterone entry in test [1] is listed as “increased”.
As to `N#Cc1ccc([C@H]2CCc3cncn32)c(F)c1` [LCI699], the circulating aldosterone levels entry on CYP11B2 is listed as “significantly lower”.
Take `N#Cc1ccc([C@H]2CCCc3cncn32)cc1` [FAD286]: the plasma aldosterone result in test [1] is “reduced”.
On to `CC[C@@H]1c2cc(Cl)ccc2C(=O)N1c1cncc2c1CC[C@@H]2NS(C)(=O)=O` (single isomer, unassigned) [Example 367, N-[(S or R)-4-((R or S)-5-Chloro-3-ethyl-1-oxo-1,3-dihydro-isoindol-2-yl)-6,7-dihydro-5H-[2]pyrindin-7-yl]-methanesulfonamide], for which the pEC50 at human CYP11B2 was 7.21; at human CYP11B1 it was 5.28.
For `CC1(C)c2cc(Cl)ccc2C(=O)N1c1cncc(CN2CCOC2=O)c1` [Example 412, 5-Chloro-3,3-dimethyl-2-[5-(2-oxo-oxazolidin-3-ylmethyl)-pyridin-3-yl]-2,3-dihydro-isoindol-1-one], the pEC50 is 7.33 on human CYP11B2 and 5.78 on human CYP11B1.
